Measured values: patent US20130197030A1, “Substituted 1,3-Dioxanes and There Uses” (Evolva Sa, priority 2007, published 2013)

Key:
[1] = test system: KKA^y mice; experiment: In vivo effect on serum glucose and other parameters in KKA^y mice
Experimental: 52 male KKA^y mice are obtained commercially (e.g., from Clea Japan) at an age of 6 weeks and put on a high fat diet upon arrival. Individual mice were housed in IVC Type II cages during both the acclimatization and the experimental phase. Both food (high fat diet) and water are supplied ad libitum.
1 animal per cage. […] Lights on at 06:00 a.m. Temperature: 21-25° C. Relative humidity target range: 55-60%.
Mice were randomized into treatment groups according to their 4-h fasting blood glucose.
4 hours after the last administration, non-fasting conditions.
Gamma irradiated high fat diet is commercially available (e.g., Research Diets, Inc. New Brunswick, N.J. (Product # D12266BI)).
Blood is collected into heparin containing glass capillaries which are subsequently centrifuged in a “Haematokrit 24” centrifuge (Hettich) at 15′200×g for 10 minutes at room temperature to obtain the hematocrit value.
The following serum parameters are determined on a COBAS INTEGRA 800 auto analyzer (Roche Diagnostics, Switzerland) using the reagents and protocols provided by the supplier.
All measurements are made on Day 14 of administration, except for the food intake and body weight measurements that are made on Day 12.

[2] = test system: arterial thrombosis in a mouse model; experiment: Arterial thrombosis in a mouse model (FeCl3, femoral artery); assay type: in vivo; conditions: mice
Experimental: The solutions are diluted 3.3-fold in saline and 100 μl/25 g is injected. Thus, the above-mentioned doses of 100 and 300 mg/kg of compound correspond to final doses of 30 and 100 mg/kg.
During the experiments, a soluble salt of the drug is provided (e.g., potassium salt of compound C), diluted in saline. Of this formulation, 100 μl/25 g is injected i.v. in the tail vein (dose of 100 mg/kg).
Solutions are injected (100 μl/25 g body weight) i.v. in the tail vein over 2 min to obtain doses of each compound of 30 mg/kg and 100 mg/kg. Aspirin is given the same way at a dose of 200 mg/kg. Clopidogrel is administered by oral gavage at a dose of 20 mg/kg at 6-7 hours prior to the experiment. The animals assigned to each group are matched for body weight. Mice are typically 8-10 weeks old males and are in a 100% Swiss genetic background.
The flow in each image is expressed as a percentage of that at the contralateral side, and data are averaged for all 120 images to determine total flow. The same analysis is performed for 10 min intervals (which gives essentially the same information as the area under the curve). […] Flow before treatment is recorded as 100%, and that in occluded arteries as 0%. At the end of the experiment, blood is collected on 0.01M citrate buffer by heart puncture for determination of blood cell counts. Plasma is prepared by centrifugation and stored at −20° C. for determination of drug levels.
Statistical analysis for differences between two groups is performed by non-parametric Student t-test. Occlusion times >30 min were considered equal to 30 min for statistical analysis. Significance is set at p<0.05.

[3] = target: T1, Thromboxane receptor (TP) (Homo sapiens, UniProt P21731); experiment: TP receptor radioligand binding; conditions: Human recombinant HEK-293 cells
T1 construct: expressed in transfected cells; host or cells: HEK-293 cells
T1 sequence (P21731 1-343): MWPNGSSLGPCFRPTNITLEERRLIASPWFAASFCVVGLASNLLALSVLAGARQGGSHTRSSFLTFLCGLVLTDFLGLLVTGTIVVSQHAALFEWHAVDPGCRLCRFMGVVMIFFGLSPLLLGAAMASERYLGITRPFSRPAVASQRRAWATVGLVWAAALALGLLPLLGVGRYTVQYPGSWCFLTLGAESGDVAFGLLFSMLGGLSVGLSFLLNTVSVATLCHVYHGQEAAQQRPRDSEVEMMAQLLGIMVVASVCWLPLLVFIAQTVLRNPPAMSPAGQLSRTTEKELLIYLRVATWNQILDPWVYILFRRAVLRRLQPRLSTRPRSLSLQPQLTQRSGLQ
Experimental: The compounds were tested on radioligand binding assays for thromboxane receptor binding essentially as described by Hedberg et al. (1988) J. Pharmacol. Exp. Ther. 245:786-792 and Saussy et al. (1986) J. Biol. Chem. 261: 3025-3029 according to the following:
TP Receptor Radioligand Binding Studies:
Human recombinant HEK-293 cells,
Incubation Time, Temp: 30 minutes at 25° C.
Incubation Buffer: 50 mM Tris-HCl, pH 7.4, 154 mM NaCl
Non-Specific Ligand: 1 μM SQ-29548
The data were transformed to semi-log and then analysed using non-linear regression to a four-parameter dose-response curve Y=Bottom+(Top−Bottom)/(1+10̂((LogEC50−X)*HillSlope)) using the log(agonist) vs. response—Variable slope function of GraphPad Prism software (http://graphpad.com/help/prism5/prism5help.html?usingnonlinear_regression_step_by_s.htm).

[4] = target: T2, Thromboxane synthase (Homo sapiens, UniProt P24557); experiment: Human platelet thromboxane synthase assay; assay type: biochemical
T2 construct: Human Platelet Thromboxane Synthase Assay; from tissue; host or cells: human platelets
T2 sequence (P24557 1-533): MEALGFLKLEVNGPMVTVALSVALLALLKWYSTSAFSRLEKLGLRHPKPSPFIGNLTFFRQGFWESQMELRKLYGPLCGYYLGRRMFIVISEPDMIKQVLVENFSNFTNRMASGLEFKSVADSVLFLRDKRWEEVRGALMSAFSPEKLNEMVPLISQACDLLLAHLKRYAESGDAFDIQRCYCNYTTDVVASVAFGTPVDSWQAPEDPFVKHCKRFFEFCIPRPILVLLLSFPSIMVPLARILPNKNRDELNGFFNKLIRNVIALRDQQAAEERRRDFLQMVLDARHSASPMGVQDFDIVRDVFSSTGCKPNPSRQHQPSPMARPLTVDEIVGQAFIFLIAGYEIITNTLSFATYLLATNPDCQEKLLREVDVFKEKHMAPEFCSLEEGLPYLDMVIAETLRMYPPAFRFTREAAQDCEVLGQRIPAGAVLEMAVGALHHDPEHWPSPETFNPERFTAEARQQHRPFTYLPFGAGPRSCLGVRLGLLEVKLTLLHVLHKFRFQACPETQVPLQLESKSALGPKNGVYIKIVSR
Experimental: The compounds were tested for thromboxane synthase inhibition essentially as described by Borsch-Haubold A G, Pasquet S, Watson S P. (1998). Direct inhibition of cyclooxygenase-1 and -2 by the kinase inhibitors SB 203580 and PD 98059. […] 1. Imidazole derivatives. J Med. Chem. (10):1139-48 according to the following:
Pre-incubation time, temp: 15 minutes at 25° C. Incubation time, temp: 3 minutes at 25° C.
Incubation Buffer: 10 mM Tris-HCl, pH 7.4
Quantification Method: ETA quantification of TxB2

[5] = test system: U-46619-induced platelet aggregation; experiment: TP receptor platelet aggregation, rabbit; assay type: cell-based, New Zealand Rabbit
Experimental: Thrombosis Research 33:277-288.
TP Receptor Platelet Aggregation—Rabbit:
New Zealand Rabbit (2.75±0.25 kg) platelet rich plasma
Assay: Inhibition of 1.5 μM U-46619-induced platelet aggregation Incubation Time, Temp: 5 minutes at 37° C. Incubation Buffer Trisodium Citrate (0.13 M)-treated platelet rich plasma
Time of Assessment: 5 minutes
Quantification Method Optical Density Change

[6] = 53 mg/kg BID oral gavage 14 days, high fat diet, Day 14
[7] = 14-day oral gavage BID, dose not given

CN(CCOc1ccc(CC2SC(=O)NC2=O)cc1)c1ccccn1 (stereo not shown) [Rosiglitazone, reference compound]
Heart weight ([1]; 5 mg/kg BID oral gavage 14 days, high fat diet, Day 14): 226.2 ± 6.9 mg
Heart weight ([1]; 5 mg/kg BID oral gavage 14 days, high fat diet, Day 14, listed as rosiglitazone): increased

O=C(O)CC/C=C\C[C@@H]1CO[C@H](c2ccccc2Cl)O[C@@H]1c1ccccc1O [Compound C, (Z)-6-((2S,4S,5R)-2-(2-chlorophenyl)-4-(2-hydroxyphenyl)-1,3-dioxan-5-yl)hex-4-enoic acid, reference compound]
FFA [1, 6]: decreases the FFA
HbA1C [1, 6]: decreased
Heart weight [1, 6]: has no effect on heart weight
Serum Glucose [1, 6]: decreased
Body weight ([1]; 53 mg/kg BID oral gavage, high fat diet, Day 12): do not alter body weight
Occlusion time ([2]; 30 mg/kg in vehicle i.v.): slightly prolongs the occlusion time as compared to aspirin (p=0.024), but has no effect as compared to vehicle
Total blood flow ([2]; 30 mg/kg in vehicle i.v.): has no effect on total blood flow

O=C(O)CC/C=C\C[C@@H]1CO[C@H](c2coc3ccc(Cl)cc3c2=O)O[C@@H]1c1ccccc1O (single isomer, unassigned) [Compound 3-1]
Binding to the TP receptor (comparison of enantiomers) [3]: binds with higher affinity than enantiomer 3-2
IC50 ([3]; 5 nM [3H] SQ-29548): 88.9 nM
Ki ([3]; 5 nM [3H] SQ-29548): 58 nM
inhibition at 1 µM ([3]; at 1 μM, 5 nM [3H] SQ-29548): 99%
IC50 [4]: 0.365 µM
inhibition at 1 µM ([4]; at 1 μM): 67%

COc1ccccc1[C@@H]1O[C@H](c2ccccc2Cl)OC[C@@H]1C/C=C\CCC(=O)O [Compound E, (Z)-6-((2R,4R,5S)-2-(2-chlorophenyl)-4-(2-methoxyphenyl)-1,3-dioxan-5-yl)hex-4-enoic acid, reference compound]
inhibition at 10 µM ([3]; 5 nM [3H] SQ-29548): 85%
inhibition at 30 µM ([4]; at 30 μM): 52%

COC(=O)[C@H](c1ccccc1Cl)N1CCc2sccc2C1 [Clopidogrel]
Total blood flow ([2]; 20 mg/kg oral gavage 6-7 hours prior): significantly improved total blood flow

Cc1ccc2nc(Cl)c([C@H]3OC[C@@H](C/C=C\CCC(=O)O)[C@@H](c4ccccc4O)O3)cc2c1 (racemic) [Compound 13, (Z)-6-(2-(2-Chloro-6-methyl-quinolin-3-yl)-4-(2-hydroxyphenyl)-1,3-dioxan-5-yl)hex-4-enoic acid]
Inhibition of platelet aggregation (in words) [5]: potent inhibitors of platelet aggregation
inhibition at 10 µM ([5]; Oryctolagus cuniculus, at 10 μM, 1.5 μM U-46619, platelet rich plasma): 100%
FFA [1, 7]: decreases the FFA
HbA1c levels [1, 7]: decreased
Heart weight [1, 7]: has no effect on heart weight
Body weight ([1]; oral gavage BID, dose not given): do not alter body weight
Occlusion time ([2]; dose not given): prolongs the occlusion time
Total blood flow ([2]; dose not given): improves total blood flow
Inhibition of thromboxane synthase (in words) [4]: potent inhibitors of thromboxane synthase
inhibition at 5 µM ([4]; at 5 μM): 85%

COc1ccccc1[C@@H]1O[C@H](c2ccccc2Cl)OC[C@@H]1C/C=C\CCC(=O)O [Compound F, (Z)-6-((2R,4R,5S)-2-(2-chlorophenyl)-4-(2-methoxyphenyl)-1,3-dioxan-5-yl)hex-4-enoic acid, reference compound]
IC50 ([3]; 5 nM [3H] SQ-29548): 23.4 nM
Ki ([3]; 5 nM [3H] SQ-29548): 15.3 nM
inhibition at 0.3 µM ([3]; at 0.3 μM, 5 nM [3H] SQ-29548): 96%
IC50 [4]: 20.4 µM
Thromboxane synthase Human platelet Inhibition (%) ([4]; at 30 μM): 62 @ 30 μM %

CC(=O)Oc1ccccc1C(=O)O [Aspirin]
Occlusion time ([2]; 200 mg/kg i.v.): has no effect on the occlusion time
Total blood flow ([2]; 200 mg/kg i.v.): has no significant effect on the total blood flow

O=C(O)CC/C=C\C[C@H]1CO[C@@H](c2coc3ccc(Cl)cc3c2=O)O[C@H]1c1ccccc1O (single isomer, unassigned) [Compound 3-2]
IC50 ([3]; 5 nM [3H] SQ-29548): 1680 nM
Ki ([3]; 5 nM [3H] SQ-29548): 1100 nM
inhibition at 10 µM ([3]; 5 nM [3H] SQ-29548): 93%
IC50 [4]: > 100 µM
inhibition at 100 µM ([4]; at 100 μM): 37%
